Data from patent US8802597B2, “Herbicidal pyrimidines” (E I du Pont de Nemours and Company, priority 2003, dated 2014).
Like-named read-outs stand apart in the source and are kept apart here.

Columns and labels:
Assay in all cases: Test C pre/postemergence
Type in all cases: in vivo
[1] = system: Surinam grass (Brachiaria decumbens); conditions: Urochloa decumbens; for pest or weed control at 125 g/ha: 125 g ai/ha; for pest or weed control at 16 g/ha: 16 g ai/ha; for pest or weed control at 31 g/ha: 31 g ai/ha; for pest or weed control at 62 g/ha: 62 g ai/ha
Outline: (§1)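 Visual injury ratings, 0 (no effect) to 100 (complete control), made 12 to 14 days after treatment by comparison with untreated controls. Greenhouse plants received test chemical in a surfactant-containing non-phytotoxic solvent, either preemergence on planted seeds or postemergence at the 1- to 4-leaf stage.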

[2] = system: cocklebur (Xanthium strumarium); conditions: Xanthium strumarium; for pest or weed control at 16 g/ha: 16 g ai/ha; for pest or weed control at 31 g/ha: 31 g ai/ha; for pest or weed control at 62 g/ha: 62 g ai/ha; for pest or weed control at 125 g/ha: 125 g ai/ha
Outline: as §1

[3] = system: common (oilseed) sunflower (Helianthus annuus); conditions: Helianthus annuus, pre-emergence, Preemergence, read-out: Plant response rating, Sunflower
Outline: as §1

[4] = system: common ragweed (Ambrosia elatior); conditions: Ambrosia artemisiifolia; for pest or weed control at 16 g/ha: 16 g ai/ha; for pest or weed control at 31 g/ha: 31 g ai/ha; for pest or weed control at 62 g/ha: 62 g ai/ha; for pest or weed control at 125 g/ha: 125 g ai/ha
Outline: as §1

[5] = system: corn (Zea mays); conditions: Zea mays; for Corn plant response rating (crop injury, 0 = no effect, 100 = complete kill) at 16 g/ha: 16 g ai/ha; for Corn plant response rating (crop injury, 0 = no effect, 100 = complete kill) at 31 g/ha: 31 g ai/ha; for Corn plant response rating (crop injury, 0 = no effect, 100 = complete kill) at 62 g/ha: 62 g ai/ha; for Corn plant response rating (crop injury, 0 = no effect, 100 = complete kill) at 125 g/ha: 125 g ai/ha
Outline: as §1

[6] = system: crabgrass (Digitaria sanguinalis); conditions: Digitaria sanguinalis; for pest or weed control at 16 g/ha: 16 g ai/ha; for pest or weed control at 31 g/ha: 31 g ai/ha; for pest or weed control at 62 g/ha: 62 g ai/ha; for pest or weed control at 125 g/ha: 125 g ai/ha
Outline: as §1

[7] = system: goosegrass (Eleusine indica); conditions: Eleusine indica, post-emergence, Postemergence, read-out: Plant response rating (scale of 0 to 100), Goosegrass
Outline: as §1

[8] = post-emergence, Postemergence, scale 0 to 100 (0 no effect, 100 complete control), read-out: Surinam Grass plant response rating
[9] = post-emergence, Postemergence, read-out: Plant response rating (scale of 0 to 100), Surinam Grass
[10] = pre-emergence, Preemergence, scale 0 to 100, 0 no effect, 100 complete control, read-out: Plant response rating, Surinam Grass
[11] = post-emergence, Postemergence, read-out: Plant response rating (scale of 0 to 100), Cocklebur
[12] = post-emergence, Postemergence, scale 0 to 100 (0 no effect, 100 complete control), read-out: Cocklebur plant response rating
[13] = pre-emergence, Preemergence, scale 0 to 100, 0 no effect, 100 complete control, read-out: Plant response rating, Cocklebur
[14] = post-emergence, Postemergence, read-out: Plant response rating (scale of 0 to 100), Ragweed
[15] = post-emergence, Postemergence, scale 0 to 100 (0 no effect, 100 complete control), read-out: Ragweed plant response rating
[16] = pre-emergence, Preemergence, scale 0 to 100, 0 no effect, 100 complete control, read-out: Plant response rating, Ragweed
[17] = post-emergence, Postemergence, read-out: Plant response rating (scale of 0 to 100), Corn
[18] = post-emergence, Postemergence, scale 0 to 100 (0 no effect, 100 complete control), read-out: Corn plant response rating
[19] = pre-emergence, Preemergence, scale 0 to 100, 0 no effect, 100 complete control, read-out: Plant response rating, Corn
[20] = post-emergence, Postemergence, read-out: Plant response rating (scale of 0 to 100), Crabgrass
[21] = post-emergence, Postemergence, scale 0 to 100 (0 no effect, 100 complete control), read-out: Crabgrass plant response rating
[22] = pre-emergence, Preemergence, scale 0 to 100, 0 no effect, 100 complete control, read-out: Plant response rating, Crabgrass

With COC(=O)c1nc(C2CC2)nc(N)c1F [Compound 25] the pest or weed control at 125 g/ha [1, 8] was 5%, the pest or weed control at 16 g/ha [1, 9] was 0% and the pest or weed control at 31 g/ha [1, 9] was 0%. For the same molecule, the pest or weed control at 62 g/ha [1, 8] was 0%, the pest or weed control at 16 g/ha [1, 10] was 0% and the pest or weed control at 31 g/ha [1, 10] was 0%. It also gave a pest or weed control at 62 g/ha [1, 10] of 0%, a pest or weed control at 125 g/ha ([1]; pre-emergence, Preemergence, scale 0 to 100, read-out: Plant response rating, Surinam Grass) of 40% and a pest or weed control at 16 g/ha [2, 11] of 70%. For the same molecule, the pest or weed control at 31 g/ha [2, 11] was 85%, the pest or weed control at 62 g/ha [2, 12] was 90% and the pest or weed control at 125 g/ha [2, 12] was 90%. It also gave a pest or weed control at 16 g/ha [2, 13] of 0%, a pest or weed control at 31 g/ha [2, 13] of 20% and a pest or weed control at 62 g/ha [2, 13] of 60%. It also gave a pest or weed control at 125 g/ha ([2]; pre-emergence, Preemergence, scale 0 to 100, read-out: Plant response rating, Cocklebur) of 85%, a pest or weed control at 16 g/ha ([3]; 16 g ai/ha, scale 0 to 100, 0 no effect, 100 complete control) of 5% and a pest or weed control at 31 g/ha ([3]; 31 g ai/ha, scale 0 to 100, 0 no effect, 100 complete control) of 60%. For the same molecule, the pest or weed control at 62 g/ha ([3]; 62 g ai/ha, scale 0 to 100, 0 no effect, 100 complete control) was 75%, the pest or weed control at 125 g/ha ([3]; 125 g ai/ha, scale 0 to 100) was 90% and the pest or weed control at 16 g/ha [4, 14] was 40%. It also gave a pest or weed control at 31 g/ha [4, 14] of 50%, a pest or weed control at 62 g/ha [4, 15] of 65% and a pest or weed control at 125 g/ha [4, 15] of 70%. For the same molecule, the pest or weed control at 16 g/ha [4, 16] was 0%, the pest or weed control at 31 g/ha [4, 16] was 70% and the pest or weed control at 62 g/ha [4, 16] was 70%. The pest or weed control at 125 g/ha ([4]; pre-emergence, Preemergence, scale 0 to 100, read-out: Plant response rating, Ragweed) was 85%, the Corn plant response rating (crop injury, 0 = no effect, 100 = complete kill) at 16 g/ha [5, 17] was 0% and the Corn plant response rating (crop injury, 0 = no effect, 100 = complete kill) at 31 g/ha [5, 17] was 0%. The Corn plant response rating (crop injury, 0 = no effect, 100 = complete kill) at 62 g/ha [5, 18] was 0%, the Corn plant response rating (crop injury, 0 = no effect, 100 = complete kill) at 125 g/ha [5, 18] was 0% and the Corn plant response rating (crop injury, 0 = no effect, 100 = complete kill) at 16 g/ha [5, 19] was 0%. For the same molecule, the Corn plant response rating (crop injury, 0 = no effect, 100 = complete kill) at 31 g/ha [5, 19] was 0%, the Corn plant response rating (crop injury, 0 = no effect, 100 = complete kill) at 62 g/ha [5, 19] was 0% and the Corn plant response rating (crop injury, 0 = no effect, 100 = complete kill) at 125 g/ha ([5]; pre-emergence, Preemergence, scale 0 to 100, read-out: Plant response rating, Corn) was 0%. The pest or weed control at 16 g/ha [6, 20] was 0%, the pest or weed control at 31 g/ha [6, 20] was 0% and the pest or weed control at 62 g/ha [6, 21] was 30%. It also gave a pest or weed control at 125 g/ha [6, 21] of 50%, a pest or weed control at 16 g/ha [6, 22] of 0% and a pest or weed control at 31 g/ha [6, 22] of 0%. For the same molecule, the pest or weed control at 62 g/ha [6, 22] was 0%, the pest or weed control at 125 g/ha ([6]; pre-emergence, Preemergence, scale 0 to 100, read-out: Plant response rating, Crabgrass) was 0% and the pest or weed control at 16 g/ha ([7]; 16 g ai/ha) was 0%. The pest or weed control at 31 g/ha ([7]; 31 g ai/ha) was 0%.
